# Experimental data published in patent US20200216439A1, “HETERO-1,5,6,7-TETRAHYDRO-4H-INDOL-4-ONES” (BAYER PHARMA AKTIENGESELLSCHAFT, priority 2015, published 2020).
# Biological target: T1, catalytic domain of human Bub1 (amino acids 704-1085) (Homo sapiens, UniProt O43683)
# T1 construct: catalytic domain of human Bub1 (amino acids 704-1085); His6 (N); made in house; host or cells: Hi5 insect cells
# Experiment: Bub1 kinase assay (TR-FRET)
# Type: biochemical
# Details: TR-FRET; ATP 10 μM, peptide substrate 1 μM; 60 min at 22° C.; average or median if tested more than once; read-out: Inhibition of Bub1 kinase IC50
# Procedure, shortened: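 Eleven concentrations (0.1 nM–20 μM, duplicate) fitted by 4-parameter logistic for IC50. Read-out: EDTA-stopped TR-FRET (665/620 nm) detecting anti-phosphoserine binding to biotin-peptide (1 μM). Reaction used 10 μM ATP, 60 min at 22 °C, after 15 min compound preincubation with His-tagged human Bub1 704-1085.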
# T1 sequence (O43683 704-1085): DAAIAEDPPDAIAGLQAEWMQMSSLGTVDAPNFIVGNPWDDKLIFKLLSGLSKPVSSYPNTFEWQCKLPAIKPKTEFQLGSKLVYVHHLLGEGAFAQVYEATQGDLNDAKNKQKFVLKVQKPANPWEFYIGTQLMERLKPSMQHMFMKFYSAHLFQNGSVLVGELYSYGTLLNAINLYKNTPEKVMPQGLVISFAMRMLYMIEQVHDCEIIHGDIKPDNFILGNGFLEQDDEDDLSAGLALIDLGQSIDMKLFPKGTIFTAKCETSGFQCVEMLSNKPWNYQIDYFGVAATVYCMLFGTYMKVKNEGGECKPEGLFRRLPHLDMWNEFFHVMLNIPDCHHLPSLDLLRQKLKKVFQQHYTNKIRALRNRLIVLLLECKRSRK
row,SMILES,IC50
1,"O=C1CN(S(=O)(=O)c2cnc[nH]2)Cc2[nH]c(-c3ccnc(NC(=O)C4(F)CC4)c3)c(Nc3ccccc3)c21 [Example 165, N-{4-[3-Anilino-6-(1H-imidazol-5-ylsulfonyl)-4-oxo-4,5,6,7-tetrahydro-1H-pyrrolo[2,3-c]pyridin-2-yl]pyridin-2-yl}-1-fluorocyclopropanecarboxamide]",14 nM
2,"CC(=O)Nc1cc(-c2[nH]c3c(c2Nc2ccccc2)C(=O)CN(C(=O)c2cncs2)C3)ccn1 [Example 175, N-{4-[3-Anilino-4-oxo-6-(1,3-thiazol-5-ylcarbonyl)-4,5,6,7-tetrahydro-1H-pyrrolo[2,3-c]pyridin-2-yl]pyridin-2-yl}acetamide]",8 nM
3,"COc1cnccc1-c1[nH]c2c(c1Nc1ccccc1)C(=O)CN(S(C)(=O)=O)C2 [Example 107, 2-(3-Methoxypyridin-4-yl)-6(methylsulfonyl)-3-(phenylamino)-1,5,6,7-tetrahydro-4H-pyrrolo[2,3-c]pyridin-4-one]",6 nM
4,"O=C1CNCc2[nH]c(-c3ccnc(NC(=O)C4CC4(F)F)c3)c(Nc3ccccc3)c21 (racemic) [Example 137, (1RS)—N-[4-(3-Anilino-4-oxo-4,5,6,7-tetrahydro-1H-pyrrolo[2,3-c]pyridin-2-yl)pyridin-2-yl]-2,2-difluorocyclopropanecarboxamide]",64 nM
5,"COCCOC(=O)N1CC(=O)c2c([nH]c(-c3ccncc3)c2Nc2ccccc2)C1 [Example 80, 2-Methoxyethyl 4-oxo-3-(phenylamino)-2-(pyridin-4-yl)-1,4,5,7-tetrahydro-6H-pyrrolo[2,3-c]pyridine-6-carboxylate]",11 nM
6,"CC(=O)Nc1cc(-c2[nH]c3c(c2Nc2ccccc2)C(=O)CN(C(=O)C2CCN(C)CC2)C3)ccn1 [Example 191, N-(4-{3-Anilino-6-[(1-methylpiperidin-4-yl)carbonyl]-4-oxo-4,5,6,7-tetrahydro-1H-pyrrolo[2,3-c]pyridin-2-yl}pyridin-2-yl)acetamide]",143 nM
7,"O=C1CN(C(=O)c2cccnc2)Cc2[nH]c(-c3ccncc3)c(Nc3ccccc3)c21 [Example 62, 3-(phenylamino)-2-(pyridin-4-yl)-6-(pyridin-3-ylcarbonyl)-1,5,6,7-tetrahydro-4H-pyrrolo[2,3-c]pyridin-4-one]",15 nM
8,"CC(C)OC(=O)N1CC(=O)c2c([nH]c(-c3ccnc(NC(=O)C(C)(C)F)c3)c2Nc2ccccc2)C1 [Example 155, Isopropyl 3-anilino-2-{2-[(2-fluoro-2-methylpropanoyl)amino]pyridin-4-yl}-4-oxo-1,4,5,7-tetrahydro-6H-pyrrolo[2,3-c]pyridine-6-carboxylate]",60 nM
9,"CN1CCN(C(=O)N2CC(=O)c3c([nH]c(-c4ccncc4)c3Nc3ccccc3)C2)CC1 [Example 95, 6-[(4-Methylpiperazin-1-yl)carbonyl]-3-(phenylamino)-2-(pyridin-4-yl)-1,5,6,7-tetrahydro-4H-pyrrolo[2,3-c]pyridin-4-one]",9 nM
10,"O=C(Nc1cc(-c2[nH]c3c(c2Nc2ccccc2)C(=O)COC3)ccn1)c1ccc(F)cc1 [Example 52, 4-Fluoro-N-{4-[4-oxo-3-(phenylamino)-1,4,5,7-tetrahydropyrano[3,4-b]pyrrol-2-yl]pyridin-2-yl}benzamide]",10 nM
11,"Cc1nccc(-c2[nH]c3c(c2Nc2ccccc2)C(=O)CN(C(=O)OC(C)(C)C)C3)n1 [Example 12, tert-Butyl 2-(2-methylpyrimidin-4-yl)-4-oxo-3-(phenylamino)-1,4,5,7-tetrahydro-6H-pyrrolo[2,3-c]pyridine-6-carboxylate]",102 nM

# More lines, now with the values ahead:
row,IC50,SMILES
1,149 nM,"Cc1ccc(F)cc1C(=O)Nc1cc(-c2[nH]c3c(c2Nc2ccccc2)C(=O)CNC3)ccn1 [Example 269, 5-Fluoro-2-methyl-N-4-[4-oxo-3-(phenylamino)-4,5,6,7-tetrahydro-1H-pyrrolo[2,3-c]pyridin-2-yl]pyridin-2-ylbenzamide]"
2,20 nM,"O=C1CN(C(=O)N2CCOCC2)Cc2[nH]c(-c3ccncc3OCC(F)F)c(Nc3ccccc3)c21 [Example 239, 2-[3-(2,2-Difluoroethoxy)pyridin-4-yl]-6-(morpholin-4-ylcarbonyl)-3-(phenylamino)-1,5,6,7-tetrahydro-4H-pyrrolo[2,3-c]pyridin-4-one]"
3,72 nM,"COc1ccc(C(=O)Nc2cc(-c3[nH]c4c(c3Nc3ccccc3)C(=O)CN(C(=O)OC(C)(C)C)C4)ccn2)c(C)c1 [Example 266, tert-Butyl 2-2-[(4-methoxy-2-methylbenzoyl)amino]pyridin-4-yl-4-oxo-3-(phenylamino)-1,4,5,7-tetrahydro-6H-pyrrolo[2,3-c]pyridine-6-carboxylate]"
4,1150 nM,"CC(=O)Nc1cc(-c2[nH]c3c(c2Nc2ccc(C)cc2)C(=O)CNC3)ccn1 [Example 303, N-(4-{3-[(4-Methylphenyl)amino]4-oxo-4,5,6,7-tetrahydro-1H-pyrrolo[2,3-c]pyridin-2-yl}pyridin-2-yl)acetamide]"
5,33 nM,"CC(=O)N1CC(=O)c2c([nH]c(-c3ccncc3OCC(F)F)c2Nc2ccccc2)C1 [Example 228, 6-Acetyl-3-anilino-2-[3-(2,2-difluoroethoxy)pyridin-4-yl]-1,5,6,7-tetrahydro-4H-pyrrolo[2,3-c]pyridin-4-one]"
6,3 nM,"COc1cc(C(=O)Nc2cc(-c3[nH]c4c(c3Nc3ccccc3)C(=O)CN(S(=O)(=O)N(C)C)C4)ccn2)ccc1F [Example 259, N-4-[6-(Dimethylsulfamoyl)-4-oxo-3-(phenylamino)-4,5,6,7-tetrahydro-1H-pyrrolo[2,3-c]pyridin-2-yl]pyridin-2-yl-4-fluoro-3-methoxybenzamide]"
7,57 nM,"COC(=O)N1CC(=O)c2c([nH]c(-c3ccncc3OCC(F)(F)F)c2Nc2ccccc2)C1 [Example 242, Methyl 4-oxo-3-(phenylamino)-2-[3-(2,2,2-trifluoroethoxy)pyridin-4-yl]-1,4,5,7-tetrahydro-6H-pyrrolo[2,3-c]pyridine-6-carboxylate]"
8,4 nM,"CCOC(=O)N1CC(=O)c2c([nH]c(-c3ccnc(NC(=O)[C@@H]4C[C@@H]4F)c3)c2Nc2ccccc2)C1 [Example 215, Ethyl 2-[2-([(1S,2S)-2-fluorocyclopropyl]carbonylamino)pyridin-4-yl]-4-oxo-3-(phenylamino)-1,4,5,7-tetrahydro-6H-pyrrolo[2,3-c]pyridine-6-carboxylate]"
9,140 nM,"O=C1CNCc2[nH]c(-c3ccncc3OCC3CC3)c(Nc3ccccc3)c21 [Example 227, 3-anilino-2-[3-(cyclopropylmethoxy)pyridin-4-yl]-1,5,6,7-tetrahydro-4H-pyrrolo[2,3-c]pyridin-4-one]"
10,2 nM,CC(C)(C)C(=O)N1CC(=O)c2c([nH]c(-c3ccnc(NC(=O)[C@@H]4C[C@@H]4F)c3)c2Nc2ccccc2)C1 [Example 213]
11,3 nM,"O=C1CN(S(=O)(=O)c2cnc[nH]2)Cc2[nH]c(-c3ccnc(NC(=O)[C@@H]4C[C@@H]4F)c3)c(Nc3ccccc3)c21 [Example 204, (1S,2S)-2-Fluoro-N-4-[6-(1H-imidazol-5-ylsulfonyl)-4-oxo-3-(phenylamino)-4,5,6,7-tetrahydro-1H-pyrrolo[2,3-c]pyridin-2-yl]pyridin-2-ylcyclopropanecarboxamide]"
12,72 nM,"COCCOc1cnccc1-c1[nH]c2c(c1Nc1ccccc1)C(=O)CNC2 [Example 226, 3-anilino-2-[3-(2-methoxyethoxy)pyridin-4-yl]-1,5,6,7-tetrahydro-4H-pyrrolo[2,3-c]pyridin-4-one]"
